Earlier results, collected in patent US5922837A, “Antiprotozoal cyclic tetrapeptides” (Merck & Co., Inc., priority 1997, dated 1999).

What was measured:
[1] = test system: mammalian histone deacetylase
[2] = test system: partially purified yeast histone deacetylase
[3] = test system: murine erythroleukemia cells
[4] = test system: sis-transformed fibroblast cells
[5] = test system: v-sis-transformed NIH3T3 cells

| Compound | type of inhibition of mammalian histone deacetylase [1] | inhibition of partially purified yeast histone deacetylase [2] | anti-trichomonal activity (trichomonal) | cell differentiating activity [3] | induction of phenotypic reversion [4] | morphological reversion [5] |
| --- | --- | --- | --- | --- | --- | --- |
| CC(/C=C/C(=O)NO)=C\[C@@H](C)C(=O)c1ccc(N(C)C)cc1 [trichostatin A] | reversible | inhibit | anti-trichomonal activity | cell differentiating activity | ability to induce phenotypic reversion |  |
| trapoxin A | irreversible |  |  |  |  | induces morphological reversion |
